Patent US20130018193A1, “DEUTERATED PIRFENIDONE” (CONCERT Pharmaceuticals Inc., priority 2007, published 2013)

Tests used:
[1] = Pharmacokinetics of Compound 106 after intravenous and oral dosing in rats; assay type: in vivo, Male Sprague-Dawley rats; conditions: for half-life / AUC(0-inf): male, Sprague-Dawley, rat, plasma; for half-life: 8 mg/kg co-dosed with pirfenidone; for AUC(0-inf): 8 mg/kg co-dosed
Procedure: Male Sprague-Dawley rats (3 for each route of administration) were administered a combination of 8 mg/kg of Compound 106 and 8 mg/kg of pirfenidone in 10% DMI (dimethyl isosorbide), 15% ethanol, 35% PG in distilled water by either oral or intravenous dosing. Blood samples from the dosed rats were collected prior to dosing and at 15, 30, 45, 60, 75, 90, 120, 240, and 360 minutes post-dosing. Plasma was isolated and prepared for analysis by mixing 0.1 ml of plasma in an Eppendorf tube with 20 μL methanol and 500 μL of quetiapine (50 ng/ml as an internal standard), vortexing for 1 minute and then centrifuging at 15,000 rpm for 5 minutes to remove any cellular debris. Plasma samples were analyzed by LC-MS/MS.
LC was performed using an Agilent (Agilent Technologies Inc. USA) liquid chromatograph equipped with an isocratic pump (1100 series), an autosampler (1100 series) and a degasser (1100 series). Plasma samples (2 μL) were run at 25° C. on a Phenomenex Gemini, C18, 5 μm, (50 mm×2.0 mm) column using 0.1% formic acid:methanol (30:70) as the mobile phase with an elution rate of 300 μL/min.
Mass spectrometric analysis was performed on plasma samples (2 μL) prepared as set forth above using an API3000 (triple-quadrupole) instrument from AB Inc (Canada) with an ESI interface. The data acquisition and control system were created using Analyst 1.4 software from ABI Inc.

[2] = Pharmacokinetics of Compounds 106 and 108 after intravenous and oral dosing in chimpanzees; assay type: in vivo; conditions: chimps; for AUC(0-inf) / clearance / half-life / Cmax: both sexes, plasma, 100 mg each co-dosed; for half-life: 30 minute infusion
Procedure: Chimpanzees (one male and one female for each route of administration) were administered a combination of 100 mg of Compound 106, 100 mg of Compound 108 and 100 mg of pirfenidone in 10% DMI (dimethyl isosorbide), 15% ethanol, 35% PG in distilled water (total volume 150 ml) by either oral or intravenous dosing. Intravenous dosing was performed by infusion over a 30 minute period. Blood samples from the orally dosed chimps were collected just prior to dosing and at 15, 30, 60, 90, 120, 240, 360, 480, 600, 720 and 1440 minutes post-dosing. Blood samples (4.5 ml) from the intravenously dosed chimps were collected just prior to infusion, at 15 and 29.5 minutes after the start of infusion, and then at 6, 15, 30, 45, 60, 120, 240, 360, 480, 600, 720 and 1440 minutes post-infusion. Plasma was isolated and prepared for analysis by mixing 0.1 ml of plasma with 300 μL of indiplon in (50 ng/ml in acetonitrile/water; 90/10; v/v) as an internal standard, vortexing and then centrifuging to remove any precipitated protein.
Plasma samples (10 μl) were injected to a Zorbax SB-C8 (Rapid Resolution) column (2.1×30 mm, 3.5 μm). The initial mobile phase condition was 100% A (water with 0.1% formic acid) and 0% B (acetonitrile with 0.1% formic acid) with a flow rate at 0.75 mL/min. Mobile phase B was allowed to reach 100% in 0.75 minutes and held for 1.0 minute before ramping back to 0% in another 0.1 minute. The overall run time was 3 minutes. The precursor/product ion pairs were set at m/z 186/92, m/z 191/97, m/z 189/95 and m/z 377/293 for detecting pirfenidone, Compound 106, Compound 108 and indiplon, respectively. Plasma concentration data for each compound in each animal was individually fitted to a 2-compartment model using WinNonLin version 5.2 (PK Model #9) with weighting of 1/y.

[3] = Pharmacokinetics of Compound 108 and 109 after intravenous and oral dosing in rats; assay type: in vivo, Male Sprague-Dawley rats; conditions: 8 mg/kg co-dosed with 8 mg/kg pirfenidone; for % Change compared to Pirfenidone, AUC0-∞ / % Change compared to Pirfenidone, Clearance / % Change compared to Pirfenidone, Half-life: IV dosing; for % Change compared to Pirfenidone, Cmax: oral dosing

[2H]c1cc(C([2H])([2H])[2H])c([2H])n(-c2ccccc2)c1=O [Compound 106, 3,6-Dideutero-5-(methyl-d3)-1-phenylpyridin-2(1H)-one]
increase in AUC as compared to pirfenidone ([1]; intravenous administration): 72% | increase in half-life as compared to pirfenidone ([1]; intravenous administration): 62% | half-life ([1]; IV dosing): 1.2 h | AUC(0-inf) ([1]; IV dosing): 20.1 µg·h/mL | AUC(0-inf) ([1]; oral dosing): 13.8 µg·h/mL | increase in AUC as compared to pirfenidone ([1]; oral dosing): 75% | AUC(0-inf) ([2]; IV dosing (Avg)): 6.9 µg·h/mL | clearance ([2]; IV dosing (Avg)): 0.262 L/h/kg | half-life ([2]; IV dosing (Avg)): 1.4 h | AUC(0-inf) ([2]; oral dosing (Avg)): 1.26 µg·h/mL | Cmax ([2]; oral dosing (Avg)): 0.34 µg/mL | increase in AUC as compared to pirfenidone ([2]; intravenous administration): ~50% | increase in half-life as compared to pirfenidone ([2]; intravenous administration): greater than 10% | increase in AUC as compared to pirfenidone ([2]; oral dosing): greater than 50% | increase in Cmax as compared to pirfenidone ([2]; oral dosing): greater than 50%

[2H]C([2H])([2H])c1ccc(=O)n(-c2ccccc2)c1 [Compound 108, 5-(Methyl-d3)-1-phenylpyridin-2(1H)-one]
AUC(0-inf) ([2]; IV dosing (Avg)): 7 µg·h/mL | clearance ([2]; IV dosing (Avg)): 0.275 L/h/kg | half-life ([2]; IV dosing (Avg)): 1.5 h | AUC(0-inf) ([2]; oral dosing (Avg)): 1.35 µg·h/mL | Cmax ([2]; oral dosing (Avg)): 0.36 µg/mL | increase in AUC as compared to pirfenidone ([2]; intravenous administration): ~50% | increase in half-life as compared to pirfenidone ([2]; intravenous administration): greater than 20% | increase in AUC as compared to pirfenidone ([2]; oral dosing): ~60% | increase in Cmax as compared to pirfenidone ([2]; oral dosing): ~60% | % Change compared to Pirfenidone, AUC0-∞ [3]: +42% | % Change compared to Pirfenidone, Clearance [3]: −29% | % Change compared to Pirfenidone, Half-life [3]: +37% | % Change compared to Pirfenidone, Cmax [3]: +31%

[2H]c1c([2H])c([2H])c(-n2cc(C([2H])([2H])[2H])ccc2=O)c([2H])c1[2H] [Compound 109]
% Change compared to Pirfenidone, AUC0-∞ [3]: +29% | % Change compared to Pirfenidone, Clearance [3]: −23% | % Change compared to Pirfenidone, Half-life [3]: +41% | % Change compared to Pirfenidone, Cmax [3]: +19%

Cc1ccc(=O)n(-c2ccccc2)c1 [Pirfenidone, 5-methyl-1-phenylpyridin-2(1H)-one]
half-life ([1]; IV dosing): 0.74 h | AUC(0-inf) ([1]; IV dosing): 11.6 µg·h/mL | AUC(0-inf) ([1]; oral dosing): 7.91 µg·h/mL | AUC(0-inf) ([2]; IV dosing (Avg)): 4.8 µg·h/mL | clearance ([2]; IV dosing (Avg)): 0.394 L/h/kg | half-life ([2]; IV dosing (Avg)): 1.2 h | AUC(0-inf) ([2]; oral dosing (Avg)): 0.83 µg·h/mL | Cmax ([2]; oral dosing (Avg)): 0.23 µg/mL
